From patent US6846821B2, “Tetrahydrothiopy ranphthalazinone derivatives as PDE4 inhibitors” (Altana Pharma, AG, priority 1999, dated 2005)

Key:
PDE4 = assay: Inhibition of PDE4 activity (method of Bauer and Schwabe, microtitre plates); type: biochemical; settings: measured as −logIC50 (mol/l)
Protocol: The activity test was carried out according to the method of Bauer and Schwabe, which was adapted to microtitre plates (Naunyn-Schmiederberg's Arch. Pharmacol. 311, 193-198, 1980). In this test, the PDE reaction is carried out in the first step. In a second step, the resultant 5′-nucleotide is cleaved to the uncharged nucleoside by a snake venom 5′-nucleotidase from Crotalus Atrox. In the third step, the necleoside is separated from the remaining charged substrate on ion exchange columns. The columns are eluted directly into minivials using 2 ml of 30 mM ammonium formate (pH 6.0), to which a further 2 ml of scintillation fluid is added for counting.
The inhibitory values determined for the compounds according to the invention follow from the following table A which the numbers of the compounds correspond to the numbers of the examples.

SMILES	melting point [°C]	Inhibition of PDE4 activity, −logIC50 (PDE4) [mol/l]
COc1ccc(C2=NN(C3CCS(=O)(=O)CC3)C(=O)C3CC=CCC23)cc1OC (stereo not drawn) [compound 2, (cis)-4-(3,4-Dimethoxyphenyl)-2-(1,1-dioxohexahydro-1l^6-thiopyran-4-yl)-4a,5,8,8a-tetrahydro-2H-phthalazin-1-one]	196 to 198	8.45
COc1ccc(C2=NN(C3CCS(=O)(=O)CC3)C(=O)C3CC=CCC23)cc1OC1CCCC1 (stereo not drawn) [compound 10, (cis)-4-(3-Cyclopentyloxy-4-methoxyphenyl)-2-(1,1,-dioxohexahydro-1l^6-thiopyran-4-yl)-4a,5,8,8a-tetrahydro-2H-phthalazin-1-one]		9.43
CCOc1ccc(C2=NN(C3CCS(=O)(=O)CC3)C(=O)C3CC=CCC23)cc1OCC (stereo not drawn) [compound 6, (cis)-4-(3,4-Diethoxyphenyl)-2-(1,1-dioxohexahydro-1l^6-thiopyran-4-yl)-4a,5,8,8a-tetrahydro-2H-phthalazin-1-one]		8.02
COc1ccc(C2=NN(C3CCSCC3)C(=O)[C@H]3CC=CC[C@@H]23)c2c1OC(C)(C)C2 (relative stereo) [compound 1, (cis)-4-(2,3-Dihydro-2,2-dimethyl-7-methoxybenzofuran-4-yl)-2-(tetrahydrothiopyran-4-yl)-4a,5,8,8a-tetrahydro-2H-phthalazin-1-one]	163 to 164	9.34
COc1ccc(C2=NN(C3CCS(=O)(=O)CC3)C(=O)C3CC=CCC23)cc1OC [compound 9, (4aS,8aR)-(cis)-4-(3,4-Dimethoxyphenyl)-2-(1,1-dioxohexahydro-1l^6-thiopyran-4-yl)-4a,5,8,8a-tetrahydro-2H-phthalazin-1-one]	203 to 204	9.20
COc1ccc(C2=NN(C3CC[S+]([O-])CC3)C(=O)C3CC=CCC23)cc1OC (stereo not drawn) [compound 3, (cis)-4-(3,4-Dimethoxyphenyl)-2-(1-oxo-hexahydro-1l^4-thiopyran-4-yl)-4a,5,8,8a-tetrahydro-2H-phthalazin-1-one]		8.51
COc1ccc(C2=NN(C3CCS(=O)(=O)CC3)C(=O)C3CC=CCC23)c2c1OC(C)(C)C2 (stereo not drawn) [compound 7, (cis)-4-(2,3-Dihydro-2,2-dimethyl-7-methoxybenzofuran-4-yl)-2-(1,1-dioxohexahydro-1l^6-thiopyran4-yl)-4a,5,8,8a-tetrahydro-2H-phthalazin-1-one]	261 to 263	9.00
COc1ccc(C2=NN(C3CC[S+]([O-])CC3)C(=O)C3CC=CCC23)cc1Cl (stereo not drawn) [compound 5, (cis)-4-(3-Chloro4-methoxyphenyl)-2-(1-oxo-hexahydro-1l^4-thiopyran-4-yl)-4a,5,8,8a-tetrahydro-2H-phthalazin-1-one]	197 to 199	8.20
COc1ccc(C2=NN(C3CCSCC3)C(=O)[C@H]3CC=CC[C@@H]23)cc1Cl (relative stereo) [compound 4, (cis)-4-(3-Chloro-4-methoxyphenyl)-2-(tetrahydrothiopyran-4-yl)-4a,5,8,8a-tetrahydro-2H-phthalazin-1-one]	170 to 171	
